Source: patent US4592997A, “Process for the detection of the presence of an allergy and for the specific detection of the allergen responsible for the allergy” (Boehringer Mannheim GmbH, priority 1982, dated 1986)
Peptide text beside a SMILES is read from it. * marks the point of attachment. pNA = O=[N+]([O-])c1ccc(N*)cc1; Tos = Cc1ccc(S(=O)(=O)*)cc1; Cbz = O=C(OCc1ccccc1)*

Tests used:
[1] = tested on: protease liberated from leukocytes after anti-IgE stimulation; experiment: Splitting of chromogenic substrates by the protease liberated from leukocytes; type: biochemical, human
Procedure: (§1) Two 0.9 ml. amounts of cell suspension were each transferred to a polyethylene test tube, mixed with 0.4 ml. tris buffer mixture (pH 7.6) and brought to 37° C. in a water-bath. To one sample, there was added 0.1 ml. of anti-IgE solution (Behring-Werke, No. OTNP 04/05, diluted 1:500 with tris buffer mixture; pH 7.6) and to the other sample (the control) there was pipetted 0.1 ml. of tris buffer mixture (pH 7.6) and to both samples there was added 0.1 ml. calcium chloride solution (4 mmol/liter in isotonic sodium chloride solution; pH 7.6). The two samples were kept for 60 minutes at 37° C., then each was mixed with 0.5 ml. ice-cold EDTA solution (0.1 mol/liter in isotonic sodium chloride solution; pH 7.6) and centrifuged for 10 minutes at 4° C., and at 30000 g, the supernatant being pipetted off immediately after stopping the centrifuge.
To 0.5 ml of the supernatant was added 0.5 ml. of 1.5 mmol/l. Chromozym TH solution (1 bottle BM 199664 dissolved in 5 ml. water). The extinction difference between the two samples was determined after 1, 2 and 3 hours at 405 nm.
From two 0.9 ml. amounts of leukocyte suspension obtained according to Example 1.1 from the blood of a healthy donor, there was obtained protease according to Example 1.2, after anti-IgE stimulation, as centrifuge supernatant. The testing of the protease took place as in Example 1.3 but in the case of one sample, instead of Chromozym TH, there was added an equimolar amount of CBO-Gly-Pro-Arg-pNA. Within the first 3 hours equal ΔE/h values (ΔE/h=0.067) were measured.
The activity of two samples treated in parallel according to Example 1 was determined with Chromozym TH and with an equimolar amount of Chromozym PL. With Chromozym PL, there was found ΔE/h=0.052 and with Chromozym TH ΔE/h=0.048.
The protease activity of two samples treated in parallel according to Example 1 was determined with Chromozym TH and with an equimolar amount of S 2238. With S 2238 there was determined ΔE/h=0.037 and with Chromozym TH ΔE/h=0.048.

leukocytes = experiment: Protease liberation from leukocytes by anti-IgE or allergen, measured with Chromozym TH (Example 1 method); type: cell-based, human; conditions: for allergy towards the substance shown with the process (in words): general statement
Procedure: 60 ml. venous blood of a healthy donor were carefully mixed with 30 ml. of a dextran mixture (dextran with average M.W. of 75000 2%; D-glucose 2%, EDTA 20 mmol/liter; gelatine 0.07%) in a polyethylene beaker and transferred to a siliconised separating funnel. After leaving to stand for 60 to 90 minutes at room temperature, the supernatant containing the leukocytes (about 50 ml.) was separated off and mixed with 50 ml. tris buffer mixture of pH 7.6 (tris 22 mmol/liter; sodium chloride 0.12 mol/liter; potassium chloride 5 mmol/liter; gelatine 0.05%; EDTA 1 mmol/liter; D-glucose 0.1%) and centrifuged for 15 minutes at 800 g. After decanting, the cells were washed twice in that, in each case, they were again suspended in 50 ml. of the same buffer mixture (pH 7.6) and, in each case, centrifuged for 15 minutes at 800 g. The cells were then suspended in 10 ml. of the same buffer mixture.
as §1
To 0.5 ml of the supernatant was added 0.5 ml. of 1.5 mmol/l. […] The extinction difference between the two samples was determined after 1, 2 and 3 hours at 405 nm.

[2] = tested on: kallikrein-like protease from leukocytes; conditions: cited from earlier work
[3] = tested on: new protease from leukocytes; experiment: Specific inhibitability of the new protease from leukocytes; type: biochemical, human; conditions: new leukocyte protease
[4] = Example 5, samples treated according to Example 1, equimolar substrate
[5] = Example 4, samples treated according to Example 1, equimolar substrate
[6] = Example 3, healthy donor, after anti-IgE stimulation, first 3 hours, equimolar substrate

NC(N)=NCCC[C@H](NC(=O)[C@@H]1CCCCN1C(=O)[C@H](N)Cc1ccccc1)C(=O)Nc1ccc([N+](=O)[O-])cc1 [S 2238, Phe-Pip-Arg-pNA]
ΔE/h with the substrate [1, 4]: 0.037 h⁻¹

Cc1ccc(S(=O)(=O)NCC(=O)N2CCC[C@H]2C(=O)N[C@@H](CCCCN)C(=O)Nc2ccc([N+](=O)[O-])cc2)cc1 [Chromozym PL, Tos-Gly-Pro-Lys-pNA] (Tos-Gly-Pro-Lys-pNA)
ΔE/h with the substrate [1, 5]: 0.052 h⁻¹

nickel
allergy towards the substance shown with the process (in words) (leukocytes): demonstrated

CC1(C)S[C@@H]2[C@H](NC(=O)[C@H](N)c3ccccc3)C(=O)N2[C@H]1C(=O)O [ampicillin]
additional extinction change ΔE/h versus unstimulated comparative sample (leukocytes; donor allergic to ampicillin): 0.558 h⁻¹ | measurement value ΔE/h of the stimulated sample (leukocytes; donor allergic to ampicillin, 0.9 ml. leukocyte suspension): 0.893 h⁻¹ | allergy towards the substance shown with the process (in words) (leukocytes): demonstrated

aprotinin [reference compound]
specific inhibitability by aprotinin I50 ([2]; known kallikrein-like protease): about 50 μg./ml. | specific inhibitability by aprotonin I50 [3]: 1 mg/mL

CC(=O)O.Cc1ccc(S(=O)(=O)NCC(=O)N2CCC[C@H]2C(=O)N[C@@H](CCCNC(=N)N)C(=O)Nc2ccc([N+](=O)[O-])cc2)cc1 [Chromozym TH, tosyl-glycyl-prolyl-arginine-p-nitroanilide acetate] (Tos-Gly-Pro-Arg-pNA)
ΔE/h with the substrate [1, 6]: 0.067 h⁻¹ | ΔE/h with the substrate [1, 5]: 0.048 h⁻¹ | ΔE/h with the substrate [1, 4]: 0.048 h⁻¹

N=C(N)NCCC[C@H](NC(=O)[C@@H]1CCCN1C(=O)CNC(=O)OCc1ccccc1)C(=O)Nc1ccc([N+](=O)[O-])cc1 [CBO-Gly-Pro-Arg-pNA, reference compound] (Cbz-Gly-Pro-Arg-pNA)
ΔE/h with the substrate [1, 6]: 0.067 h⁻¹

B1: soya bean trypsin inhibitor (protein, UniProt P01070 25-205, looked up)
Trypsin inhibitor A: DFVLDNEGNPLENGGTYYILSDITAFGGIRAAPTGNERCPLTVVQSRNELDKGIGTIISSPYRIRFIAEGHPLSLKFDSFAVIMLCVGIPTEWSVVEDLPEGPAVKIGENKDAMDGWFRLERVSDDEFNNYKLVFCPQQAEDDKCGDIGISIDHDDGTRRLVVSKNKPLVVQFQKLDKESL
inhibition by STI ([2]; 0.1 mole/l. STI): 11%
